Patent publication US20240049711A1, “HERBICIDE COMPOSITION AND WEED CONTROLLING METHOD” (SUMITOMO CHEMICAL COMPANY, LIMITED, priority 2020, published 2024)
Structures can show the parent of a compound that is named as a salt.

Columns and labels:
Type in all cases: in vivo
[1] = system: common barnyardgrass (Echinochloa crus-galli); assay: Example 214: greenhouse pot test, spray above the pot 25 days after seeding; details: rating 0 to 100; application rate compound X 10 g/ha, chlorimuron-ethyl 16 g/ha; 216 L/ha; 18 days after spraying
Procedure: A formulation was produced by dissolving a predetermined amount of chlorimuron-ethyl in DMF containing 2% Tween 20 (polyoxyethylene (20) sorbitan monolaurate) (called chlorimuron-ethyl formulation).
After filling a plastic pot with soil, common barnyardgrass (Echinochloa crus-galli) was seeded therein and grown in a greenhouse. […] Thereafter, the weeds were grown in the greenhouse for 18 days and the herbicidal effect was estimated.

[2] = system: Italian ryegrass (Lolium multiflorum); assay: Example 208: greenhouse pot test, spray above the pot 21 days after seeding; details: rating 0 to 100; application rate compound X 15 g/ha, clethodim 53 g/ha; 200 L/ha; evaluated 6 days after spraying
Procedure: The compound X (55 mg) produced in Reference Production Example 1, 76.5 mg of Emulsogen TS290 (polyoxyethylene tristyryl phenyl ether, manufactured by Clariant) and 76.5 mg of Phenylsulfonat CAL (mixture of 70% calcium dodecylbenzenesulfonate and 30% iso-butanol, manufactured by Clariant) were dissolved in Solvesso 200ND (aromatic hydrocarbon, manufactured by Exxon Mobile Corporation) to make 1 ml in total, thus producing an emulsifiable concentrate (hereinafter referred to as formulation X).
After filling a plastic pot with soil, Italian ryegrass (Loliism multiflorum) was seeded therein and grown in a greenhouse.

Italian ryegrass = assay: Example 213: greenhouse pot test, spray above the pot 21 days after seeding; details: rating 0 to 100; application rate compound X 15 g/ha, glufosinate ammonium salt 297 g/ha; 200 L/ha; evaluated 8 days after spraying
[3] = system: common barnyardgrass (Echinochloa crus-galli); assay: Example 217: greenhouse pot test, spray above the pot 25 days after seeding; details: rating 0 to 100; application rate (table) compound X 10 g/ha, flumioxazin 30 g/ha; 216 L/ha; 18 days after spraying
Procedure: A formulation was produced by dissolving a predetermined amount of flumioxazin in DMF containing 2% Tween 20 (polyoxyethylene (20) sorbitan monolaurate) (called flumioxazin formulation).
(§1) After filling a plastic pot with soil, common barnyardgrass (Echinochloa crus-galli) was seeded therein and grown in a greenhouse. […] Thereafter, the weeds were grown in the greenhouse for 18 days and the herbicidal effect was evaluated.

[4] = system: giant foxtail (Setaria faberi); assay: Example 212: greenhouse pot test, spray above the pot 21 days after seeding; details: rating 0 to 100; application rate compound X 15 g/ha, glyphosate potassium salt 630 g/ha; 200 L/ha; evaluated 6 days after spraying
Procedure: (§2) After filling a plastic pot with soil, Italian ryegrass (Lolium multiflorum) and giant foxtail (Setaria faberi) were seeded therein and grown in a greenhouse.

[5] = system: Italian ryegrass (Lolium multiflorum); assay: as above; details: rating 0 to 100; application rate compound X 15 g/ha, glyphosate potassium salt 630 g/ha; 200 L/ha; evaluated 6 days after spraying
Procedure: as §2

[6] = system: common barnyardgrass (Echinochloa crus-galli); assay: Example 216: greenhouse pot test, spray above the pot 25 days after seeding; details: rating 0 to 100; application rate compound X 10 g/ha, metribuzin 105 g/ha; 216 L/ha; 18 days after spraying
Procedure: A formulation was produced by dissolving a predetermined amount of metribuzin in DMF containing 2% Tween 20 (polyoxyethylene (20) sorbitan monolaurate) (called metribuzin formulation).
as §1

[7] = system: giant foxtail (Setaria faberi); assay: Example 209: greenhouse pot test, spray above the pot 21 days after seeding; details: rating 0 to 100; application rate compound X 15 g/ha, pendimethalin 560 g/ha; 200 L/ha; evaluated 6 or 8 days after spraying
Procedure: as §2

[8] = system: Italian ryegrass (Lolium multiflorum); assay: as above; details: rating 0 to 100; application rate compound X 15 g/ha, pendimethalin 560 g/ha; 200 L/ha; evaluated 6 or 8 days after spraying
Procedure: as §2

[9] = system: common barnyardgrass (Echinochloa crus-galli); assay: Example 215: greenhouse pot test, spray above the pot 25 days after seeding; details: rating 0 to 100; application rate compound X 10 g/ha, mesotrione 35 g/ha; 216 L/ha; 18 days after spraying
Procedure: A formulation was produced by dissolving a predetermined amount of mesotrione in DMF containing 2% Tween 20 (polyoxyethylene (20) sorbitan monolaurate) (called mesotrione formulation).
as §1

[10] = system: common barnyardgrass (Echinochloa crus-galli); assay: Example 218: greenhouse pot test, spray above the pot 25 days after seeding; details: rating 0 to 100; application rate (table) compound X 10 g/ha, pyroxasulfone 40 g/ha; 216 L/ha; 18 days after spraying
Procedure: A formulation was produced by dissolving a predetermined of pyroxasulfone in DMF containing 2% Tween 20 (polyoxyethylene (20) sorbitan monolaurate) (called pyroxasulfone formulation).
as §1

CCOC(=O)c1ccccc1S(=O)(=O)NC(=O)Nc1nc(Cl)cc(OC)n1 [Chlorimuron-ethyl, chlorimuron-ethyl]
Herbicidal effect on common barnyardgrass (observed value) [1]: 45

CCSC(C)CC1CC(=O)C(/C(CC)=N/OC/C=C/Cl)=C(O)C1 (stereo not shown) [Clethodim, clethodim]
Herbicidal effect on Italian ryegrass (observed value) [2]: 10

CCOC(=O)COC(=O)C1(Oc2cc(-n3c(=O)cc(C(F)(F)F)n(C)c3=O)c(F)cc2Cl)CC1 [Compound X]
Herbicidal effect on Italian ryegrass (observed value) (Italian ryegrass): 20 | Herbicidal effect on common barnyardgrass (observed value) [3]: 45 | Herbicidal effect on Italian ryegrass (observed value) [2]: 20 | Herbicidal effect on giant foxtail (observed value) [4]: 70 | Herbicidal effect on Italian ryegrass (observed value) [5]: 20 | Herbicidal effect on common barnyardgrass (observed value) [6]: 45 | Herbicidal effect on common barnyardgrass (observed value) [1]: 45 | Herbicidal effect on giant foxtail (observed value) [7]: 70 | Herbicidal effect on Italian ryegrass (observed value) [8]: 20 | Herbicidal effect on common barnyardgrass (observed value) [9]: 45 | Herbicidal effect on common barnyardgrass (observed value) [10]: 45

C#CCN1C(=O)COc2cc(F)c(N3C(=O)C4=C(CCCC4)C3=O)cc21 [Flumioxazin, flumioxazin]
Herbicidal effect on common barnyardgrass (observed value) [3]: 55

CP(=O)(O)CCC(N)C(=O)O (stereo not shown) [Glufosinate ammonium salt, glufosinate ammonium salt]
Herbicidal effect on Italian ryegrass (observed value) (Italian ryegrass): 80

O=C(O)CNCP(=O)(O)O [Glyphosate potassium salt, glyphosate potassium salt]
Herbicidal effect on giant foxtail (observed value) [4]: 40 | Herbicidal effect on Italian ryegrass (observed value) [5]: 50

CS(=O)(=O)c1ccc(C(=O)C2C(=O)CCCC2=O)c([N+](=O)[O-])c1 [Mesotrione, mesotrione]
Herbicidal effect on common barnyardgrass (observed value) [9]: 40

CSc1nnc(C(C)(C)C)c(=O)n1N [Metribuzin, metribuzin]
Herbicidal effect on common barnyardgrass (observed value) [6]: 8

CCC(CC)Nc1c([N+](=O)[O-])cc(C)c(C)c1[N+](=O)[O-] [Pendimethalin, pendimethalin]
Herbicidal effect on giant foxtail (observed value) [7]: 0 | Herbicidal effect on Italian ryegrass (observed value) [8]: 0

Cn1nc(C(F)(F)F)c(CS(=O)(=O)C2=NOC(C)(C)C2)c1OC(F)F [Pyroxasulfone, pyroxasulfone]
Herbicidal effect on common barnyardgrass (observed value) [10]: 2
